Experimental data from patent publication US8637510B2, “Morpholinothiazoles as alpha 7 positive allosteric modulators” (Janssen Pharmaceutica NV, priority 2009, dated 2014).

Molecular target: T1, human alpha 7-wt nAChR (Homo sapiens, UniProt P36544)
T1 construct: expressed in transfected cells
Assay: Ca2+ flux imaging (FDSS) (Protocol B)
Format: cell-based
Details: for EC50: potentiation of 100 μM choline, compounds 0.01 μM to 30 μM, read-out: a7-PAM-G_[33]_pEC50 pEC50 (converted); for Emax: efficacy of 100 μM choline defined as 100% in the absence of a PAM, read-out: a7-PAM-G_[33]_Eff_Curve_FI % Efficacy
Method: Ca^2+ Flux Imaging (FDSS) (Protocol B)
• Hanks buffered saline solution (HBSS, Invitrogen, Belgium), supplemented with 10 mM HEPES (Invitrogen, Belgium), CaCl2 to a final concentration of 5 mM, 0.1% Bovine serum albumin (Sigma-Aldrich NV, Belgium). b) Calcium-Sensitive Dye—Fluo-4AM • Fluo-4AM (Molecular Probes, USA) was dissolved in DMSO containing 10% Pluronic acid (Molecular Probes, USA) to give a stock solution which was diluted in assay buffer supplemented with 5 mM probenicid (Sigma, Aldrich NV, Belgium) to give a final concentration of 2 μM. c) 384-Well Plates • Black-sided, transparent bottomed 384 well plates coated with poly-D-lysine, PDL pre-coated (Corning, Incorporated, USA) d) Calcium Flux Measurement • A Functional drug screening system (FDSS, Hamamatsu) was used to measure intracellular free-calcium flux signals. Method
Monolayers of human alpha 7-wt nAChR-expressing cells were grown in black-sided, transparent bottomed 384 well plates coated with PDL for 24 hours prior to loading with a fluorescent calcium indicator, fluo-4AM for up to 120 minutes.
PAM activity was detected in real time by applying the compounds to be tested to the loaded cells along with an alpha 7 nicotinic receptor agonist during constant monitoring of cellular fluorescence in a FDSS. Compounds giving peak fluorescent responses greater than the response due to agonist alone, were considered to be alpha 7 nAChR PAMs. The alpha 7 nicotinic receptor agonist was choline, applied at a sub-maximal concentration of 100 μM. In a further setting of the present invention the compounds were applied prior to the alpha 7 nicotinic receptor agonist, in a particular 10 minutes prior to the agonist.
A control response to choline was calculated on each plate from the difference in peak in fluorescence in wells receiving either choline or assay buffer alone. Compounds of the present invention were tested at a concentration range from 0.01 μM to 30 μM. Compounds were considered to have an interesting activity when they potentiated the choline signal at least with 200% when tested at a concentration of 30 μM (the efficacy of 100 μM choline was defined as 100% in the absence of a PAM). An EC50 (or pEC50) was determined as a concentration relating to half the maximal effect, when a clear sigmoidal curve with top plateau was obtained.

T1 sequence (P36544 23-502): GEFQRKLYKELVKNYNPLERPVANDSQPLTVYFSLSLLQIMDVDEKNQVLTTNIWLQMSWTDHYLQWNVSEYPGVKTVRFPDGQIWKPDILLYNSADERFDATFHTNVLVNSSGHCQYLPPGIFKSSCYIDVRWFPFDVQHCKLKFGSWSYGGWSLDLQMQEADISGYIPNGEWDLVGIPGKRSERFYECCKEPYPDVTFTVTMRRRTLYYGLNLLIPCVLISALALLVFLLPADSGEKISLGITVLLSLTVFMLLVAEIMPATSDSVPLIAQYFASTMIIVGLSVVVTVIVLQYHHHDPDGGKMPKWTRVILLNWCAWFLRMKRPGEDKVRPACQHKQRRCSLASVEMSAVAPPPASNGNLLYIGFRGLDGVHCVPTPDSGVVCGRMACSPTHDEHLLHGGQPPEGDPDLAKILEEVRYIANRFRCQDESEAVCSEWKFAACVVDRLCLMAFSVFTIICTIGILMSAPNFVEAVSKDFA

SMILES	EC50 [nM]	Emax [%]
Cc1cc(-c2sc(N3C[C@@H](C)O[C@@H](C)C3)nc2CNC(=O)c2cc(C(C)(C)C)nn2C)cc(C)n1 [Compound 54, 3-(1,1-dimethylethyl)-N-[[2-[(2R,6S)-2,6-dimethyl-4-morpholinyl]-5-(2,6-dimethyl-4-pyridinyl)-4-thiazolyl]methyl]-1-methyl-1H-pyrazole-5-carboxamide]	646	–
CC(=O)NCc1nc(N2C[C@@H](C)O[C@@H](C)C2)sc1-c1cc(C)nc(C)c1 [Compound 60, N-[[2-[(2R,6S)-2,6-dimethyl-4-morpholinyl]-5-(2,6-dimethyl-4-pyridinyl)-4-thiazolyl]methyl]-acetamide]	–	495
Cc1cc(-c2sc(N3CCOCC3)nc2CNC(=O)c2conc2C)cc(C)n1 [Compound 62, N-[[5-(2,6-dimethyl-4-pyridinyl)-2-(4-morpholinyl)-4-thiazolyl]methyl]-3-methyl-4-isoxazolecarboxamide]	4270	633
Cc1cc(-c2sc(N3C[C@@H](C)O[C@@H](C)C3)nc2CNC(=O)c2conc2C)ccn1 [Compound 86, N-[[2-[(2R,6S)-2,6-dimethyl-4-morpholinyl]-5-(2-methyl-4-pyridinyl)-4-thiazolyl]methyl]-3-methyl-4-isoxazolecarboxamide]	759	479
Cc1cc(-c2sc(N3C[C@@H](C)O[C@@H](C)C3)nc2CNC(=O)c2cccc(Cl)c2)ccn1 [Compound 91, 3-chloro-N-[[2-[(2R,6S)-2,6-dimethyl-4-morpholinyl]-5-(2-methyl-4-pyridinyl)-4-thiazolyl]methyl]-benzamide]	407	445
Cc1cc(-c2sc(N3C[C@@H](C)O[C@@H](C)C3)nc2CNC(=O)c2ccccc2F)ccn1 [Compound 92, N-[[2-[(2R,6S)-2,6-dimethyl-4-morpholinyl]-5-(2-methyl-4-pyridinyl)-4-thiazolyl]methyl]-2-fluoro-benzamide]	661	523

The next lines start with the values.

EC50 [nM]	Emax [%]	SMILES
2090	299	Cc1cc(-c2sc(N3C[C@@H](C)O[C@@H](C)C3)nc2CNC(=O)C2CCC2)c(C)cn1 [Compound 95, N-[[2-[(2R,6S)-2,6-dimethyl-4-morpholinyl]-5-(2,5-dimethyl-4-pyridinyl)-4-thiazolyl]methyl]-cyclobutanecarboxamide]
6610	–	Cc1nocc1C(=O)NCc1nc(N2C[C@@H](C)O[C@@H](C)C2)sc1-c1ccncc1 [Compound 101, N-[[2-[(2R,6S)-2,6-dimethyl-4-morpholinyl]-5-(4-pyridinyl)-4-thiazolyl]methyl]-3-methyl-4-isoxazolecarboxamide]
61.7	923	Cc1cc(-c2sc(N3C[C@@H](C)O[C@@H](C)C3)nc2CNC(=O)CC2CC2)cc(C2CC2)n1 [Compound 104, N-[[5-(2-cyclopropy1-6-methyl-4-pyridinyl)-2-[(2R,6S)-2,6-dimethyl-4-morpholinyl]-4-thiazolyl]methyl]-cyclopropaneacetamide]
288	895	Cc1cc(-c2sc(N3C[C@@H](C)O[C@@H](C)C3)nc2CNC(=O)c2cc(C)on2)cc(C2CC2)n1 [Compound 105, N-[[5-(2-cyclopropy1-6-methyl-4-pyridinyl)-2-[(2R,6S)-2,6-dimethyl-4-morpholinyl]-4-thiazolyl]methyl]-5-methyl-3-isoxazolecarboxamide]
81.3	650	Cc1cc(-c2sc(N3C[C@@H](C)O[C@@H](C)C3)nc2CNC(=O)c2conc2C)cc(C2CC2)n1 [Compound 106, N-[[5-(2-cyclopropy1-6-methyl-4-pyridinyl)-2-[(2R,6S)-2,6-dimethyl-4-morpholinyl]-4-thiazolyl]methyl]-3-methyl-4-isoxazolecarboxamide]
26.9	780	Cc1cc(-c2sc(N3C[C@@H](C)O[C@@H](C)C3)nc2CNC(=O)c2ccc(F)cc2C)cc(C2CC2)n1 [Compound 107, N-[[5-(2-cyclopropy1-6-methyl-4-pyridinyl)-2-[(2R,6S)-2,6-dimethyl-4-morpholinyl]-4-thiazolyl]methyl]-4-fluoro-2-methyl-benzamide]
